According to the NIST ThermoML archive (doi:10.1016/j.jct.2018.04.014):
Numbers after ± are expanded uncertainties.

How the values were obtained:
[1] = xn = mol fraction of the nth substance listed; settings: 93.4 kPa, Liquid, x2 = 0.059; for viscosity: Concentric cylinders viscometry; for mass density: Vibrating tube method
[2] = Liquid; for viscosity / mass density: 93.4 kPa; for viscosity: Concentric cylinders viscometry; for mass density: Vibrating tube method; for vapor or sublimation pressure: Closed cell (Static) method

C=CCn1cc[n+](C)c1.[Cl-] [1-allyl-3-methylimidazolium chloride] + O
[1]
Settings | mass density [kg/m3] | viscosity [mPa·s]
323.15 K | 1132.7 ± 1.1 | 212 ± 6
333.15 K | 1127.1 ± 1.1 | 115 ± 3
343.15 K | 1121.5 ± 1 | 68.7 ± 1.6
353.15 K | 1116 ± 1 | 44 ± 1
363.15 K | 1110.5 ± 1 | 30 ± 0.7
373.15 K | 1105.2 ± 1 | 21.4 ± 0.5

C[S+](C)[O-] [dimethyl sulfoxide]
[2]
Settings | mass density [kg/m3] | vapor or sublimation pressure [kPa] | viscosity [mPa·s]
293.15 K | 1101.2 ± 1.1 | – | 2.26 ± 0.05
303.15 K | 1091.2 ± 1.1 | – | 1.85 ± 0.04
313.15 K | 1081.1 ± 1.1 | – | 1.56 ± 0.04
323.15 K | 1071.1 ± 1 | – | 1.33 ± 0.03
333.15 K | 1061.2 ± 1 | – | 1.16 ± 0.03
343.15 K | 1051.3 ± 1 | – | 1.02 ± 0.02
353.1 K | – | 2 ± 0.2 | –
353.15 K | 1041.1 ± 1 | – | 0.905 ± 0.021
363.1 K | – | 3.2 ± 0.3 | –
363.15 K | 1031.3 ± 1 | – | 0.815 ± 0.019
373.1 K | – | 5 ± 0.5 | –
373.15 K | 1021.4 ± 1 | – | 0.741 ± 0.018
383.1 K | – | 7.6 ± 0.7 | –
393.1 K | – | 11.2 ± 1 | –
403.1 K | – | 16 ± 1.4 | –
413.1 K | – | 22.7 ± 2 | –
423.1 K | – | 31.6 ± 2.8 | –
433.1 K | – | 43.2 ± 4.5 | –
